The source made the active and inactive calls. No cut-off for these calls is given here.
What was measured:
HepG2 [1] = experiment: Induction of apoptosis in human HepG2 cells assessed as increase in cleaved PARP level at 1.25 to 5 uM incubated for 12 hrs by Western blot analysis; assay type: functional, cell-based; conditions: dose 1.25-5 µM
HepG2 [2] = experiment: Induction of apoptosis in human HepG2 cells at 1.25 to 5 uM by DAPI staining based analysis; assay type: functional, cell-based; conditions: dose 1.25-5 µM
HepG2 [3] = experiment: Induction of apoptosis in human HepG2 cells assessed as increase in Bax level at 1.25 to 5 uM incubated for 12 hrs by Western blot analysis; assay type: functional, cell-based; conditions: dose 1.25-5 µM
PC-3 = experiment: Antiproliferative activity against human PC-3 cells assessed as inhibition of cell proliferation by MTT assay; assay type: functional, cell-based
HepG2 [4] = experiment: Induction of apoptosis in human HepG2 cells assessed as decrease in Bcl-2 expression level at 1.25 to 5 uM incubated for 12 hrs by Western blot analysis; assay type: functional, cell-based; conditions: dose 1.25-5 µM
HepG2 [5] = experiment: Effect on cell morphology in human HepG2 cells assessed as cell shrinkage at 1.25 to 5 uM by DAPI staining based analysis; assay type: functional; conditions: dose 1.25-5 µM
A549 = experiment: Antiproliferative activity against human A549 cells assessed as inhibition of cell proliferation by MTT assay; assay type: functional, cell-based
[6] = molecular target: E3 ubiquitin-protein ligase Mdm2 (Homo sapiens) (UniProt Q00987); experiment: Inhibition of MDM2 in human HepG2 cells assessed as increase in p53 protein level at 1.25 to 5 uM incubated for 12 hrs by Western blot analysis; assay type: cell-based; conditions: dose 1.25-5 µM
E3 ubiquitin-protein ligase Mdm2 (Homo sapiens), sequence (Q00987 whole entry, looked up): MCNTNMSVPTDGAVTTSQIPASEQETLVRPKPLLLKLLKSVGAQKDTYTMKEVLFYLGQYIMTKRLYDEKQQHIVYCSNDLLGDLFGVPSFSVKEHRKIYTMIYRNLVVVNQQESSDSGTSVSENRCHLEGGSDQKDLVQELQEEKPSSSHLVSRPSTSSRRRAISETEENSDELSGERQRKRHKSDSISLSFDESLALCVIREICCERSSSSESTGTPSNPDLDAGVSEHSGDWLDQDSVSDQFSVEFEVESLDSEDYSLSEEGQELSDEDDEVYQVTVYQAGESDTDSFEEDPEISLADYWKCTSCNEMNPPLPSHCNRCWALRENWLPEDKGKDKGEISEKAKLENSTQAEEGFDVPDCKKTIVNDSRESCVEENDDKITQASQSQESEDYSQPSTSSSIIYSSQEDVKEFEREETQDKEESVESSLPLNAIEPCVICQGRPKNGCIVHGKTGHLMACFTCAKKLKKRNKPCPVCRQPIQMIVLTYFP

HepG2 [7] = experiment: Induction of apoptosis in human HepG2 cells assessed as decrease in caspase-3 expression level at 1.25 to 5 uM incubated for 12 hrs by Western blot analysis; assay type: functional, cell-based; conditions: dose 1.25-5 µM
HepG2 [8] = experiment: Antiproliferative activity against human HepG2 cells assessed as inhibition of cell proliferation by MTT assay; assay type: functional, cell-based
HepG2 [9] = experiment: Induction of apoptosis in human HepG2 cells assessed as increase in cleaved caspase-3 level at 1.25 to 5 uM incubated for 12 hrs by Western blot analysis; assay type: functional, cell-based; conditions: dose 1.25-5 µM
[10] = Cytotoxicity against mouse L929 cells assessed as inhibition of cell proliferation by MTT assay; assay type: toxicity, cell-based
HepG2 [11] = experiment: Potency index, ratio of PD IC50 to test compound IC50 for antiproliferative activity against human HepG2 cells assessed as inhibition of cell proliferation by MTT assay; assay type: functional
[12] = molecular target: E3 ubiquitin-protein ligase Mdm2 (Homo sapiens) (UniProt Q00987); experiment: Inhibition of MDM2 in human HepG2 cells assessed as decrease in MDM2 protein level at 1.25 to 5 uM incubated for 12 hrs by Western blot analysis; assay type: cell-based; conditions: dose 1.25-5 µM
HepG2 [13] = experiment: Antiproliferative activity against human HepG2 cells assessed as inhibition of cell growth; assay type: functional, cell-based
HepG2 [14] = experiment: Effect on cell morphology in human HepG2 cells at 5 uM by DAPI staining based analysis; assay type: functional

| Structure (SMILES) | IC50 (PC-3) [µM] | IC50 (A549) [µM] | IC50 (HepG2 [8]) [µM] | IC50 [10] [µM] | Ratio IC50 (HepG2 [11]) | further results |
| --- | --- | --- | --- | --- | --- | --- |
| CC(C)c1ccc(-c2nc(SCC(=O)O[C@H]3CC[C@@]4(C)[C@@H](CC[C@]5(C)[C@H]4C[C@@H](O)[C@@H]4C([C@@]6(C)CCCC(C)(C)O6)CC[C@]45C)C3(C)C)[nH]c(=O)c2C#N)cc1 (some centres not stated) | 7.04 | 6.98 | 2.13 | 58.8 | 28 | Activity (HepG2 [1]): Active; Activity (HepG2 [2]): Active; Activity (HepG2 [3]): Active; Activity (HepG2 [4]): Active; Activity (HepG2 [5]): Active; Activity [6]: Active; Activity (HepG2 [7]): Active; Activity (HepG2 [9]): Active; Activity [12]: Active |
| N#Cc1c(-c2cn(-c3ccccc3)nc2-c2cc3ccccc3o2)[nH]c(NN)nc1=O | – | – | – | – | – | IC50 (HepG2 [13]): 12.5 µM |
| CC1(C)CCC[C@](C)([C@@H]2CC[C@]3(C)[C@@H]2[C@H](O)CC2[C@@]4(C)CC[C@H](OC(=O)CSc5nc(-c6ccc(C(F)(F)F)cc6)c(C#N)c(=O)[nH]5)C(C)(C)[C@@H]4CC[C@]23C)O1 (some centres not stated) | 8.74 | 7.03 | 3.16 | 68.7 | 21 | – |
| Cc1ccc(-c2nc(SCC(=O)O[C@H]3CC[C@@]4(C)[C@@H](CC[C@]5(C)[C@H]4C[C@@H](O)[C@@H]4[C@H]([C@@]6(C)CCCC(C)(C)O6)CC[C@]45C)C3(C)C)[nH]c(=O)c2C#N)cc1 | 7.73 | 6.77 | 4.51 | 77.4 | 12 | – |
| O=c1[nH]cc(F)c(=O)[nH]1 [FLUOROURACIL] | – | 29.2 | – | > 100 | – | Activity (HepG2 [14]): inactive |
| Cc1ccc2nc(SCC(=O)O[C@H]3CC[C@@]4(C)[C@@H](CC[C@]5(C)[C@H]4C[C@@H](O)[C@@H]4[C@H]([C@@]6(C)CCCC(C)(C)O6)CC[C@]45C)C3(C)C)[nH]c(=O)c2c1 | > 100 | > 100 | > 100 | > 100 | – | – |
